Measurements reported in ChEMBL document CHEMBL6109102, “Conjugation with the XJB peptide enhanced neuroprotective effect of honokiol via SIRT3 modulation” (Eur J Med Chem, 2025).
Active and inactive are the calls of the source. The rule behind the calls is not given here.

Experiments:
PC-12 [1] = assay: Inhibition of apoptosis in H2O2-induced rat PC12 cells assessed as early apoptotic cells at 1.25 uM incubated with compound for 24 hrs followed by H2O2 addition and measured after 24 hrs by Annexin V-FITC/PI staining based flow cytometry analysis (reference value: 1.09%); assay type: functional; parameters: scale not given: the % may be the effect or the level left
PC-12 [2] = assay: Inhibition of apoptosis in H2O2-induced rat PC12 cells assessed as viable cells at 1.25 uM incubated with compound for 24 hrs followed by H2O2 addition and measured after 24 hrs by Annexin V-FITC/PI staining based flow cytometry analysis (reference value: 91.4%); assay type: functional; settings: read-out: Activity
PC-12 [3] = assay: Cytoprotective activity against H2O2-induced cell injury in rat PC12 cells at 2.5 uM incubated with compound for 24 hrs followed by H2O2 addition and measured up to 96 hrs by Real-time cell analysis; assay type: functional, cell-based; settings: time <= 120.0 hrs
PC-12 [4] = assay: Inhibition of apoptosis in H2O2-induced rat PC12 cells assessed as necrotic cells at 1.25 uM incubated with compound for 24 hrs followed by H2O2 addition and measured after 24 hrs by Annexin V-FITC/PI staining based flow cytometry analysis (reference value: 4.05%); assay type: functional; parameters: scale not given: the % may be the effect or the level left
PC-12 [5] = assay: Inhibition of apoptosis in H2O2-induced rat PC12 cells assessed as late apoptotic cells at 1.25 uM incubated with compound for 24 hrs followed by H2O2 addition and measured after 24 hrs by Annexin V-FITC/PI staining based flow cytometry analysis (reference value: 2.64%); assay type: functional; parameters: scale not given: the % may be the effect or the level left
PC-12 [6] = assay: Anti-apoptotic activity in H2O2-induced rat PC12 cells assessed as increase in PARP protein expression at 1.25 to 5 uM by Western blot analysis; assay type: functional, cell-based; settings: dose 1.25-5 µM
PC-12 [7] = assay: Inhibition of apoptosis in H2O2-induced rat PC12 cells assessed as viable cells at 5 uM incubated with compound for 24 hrs followed by H2O2 addition and measured after 24 hrs by Annexin V-FITC/PI staining based flow cytometry analysis (reference value: 91.4%); assay type: functional; settings: read-out: Activity
PC-12 [8] = assay: Inhibition of apoptosis in H2O2-induced rat PC12 cells assessed as viable cells at 2.5 uM incubated with compound for 24 hrs followed by H2O2 addition and measured after 24 hrs by Annexin V-FITC/PI staining based flow cytometry analysis (reference value: 91.4%); assay type: functional; settings: read-out: Activity
PC-12 [9] = assay: Inhibition of apoptosis in H2O2-induced rat PC12 cells assessed as necrotic cells at 5 uM incubated with compound for 24 hrs followed by H2O2 addition and measured after 24 hrs by Annexin V-FITC/PI staining based flow cytometry analysis (reference value: 4.05%); assay type: functional; parameters: scale not given: the % may be the effect or the level left
PC-12 [10] = assay: Neuroprotective activity against H2O2-induced cell injury in rat PC12 cells assessed as cell viability at 2 uM incubated for 24 hrs by MTT assay; assay type: functional, cell-based
Danio rerio = assay: Anti-alzheimer activity in scopolamine induced zebrafish alzheimer disease model assessed as increase in total swimming distance at 1.25 to 5 uM administered for 6 days post fertilization; assay type: functional, organism-based; settings: dose 1.25-5 µM, time 6.0 day
PC-12 [11] = assay: Cytotoxicity against rat PC12 cells assessed as inhibition of cell viability at 30 uM incubated for 24 hrs by MTT assay; assay type: functional, cell-based
PC-12 [12] = assay: Inhibition of apoptosis in H2O2-induced rat PC12 cells assessed as early apoptotic cells at 2.5 uM incubated with compound for 24 hrs followed by H2O2 addition and measured after 24 hrs by Annexin V-FITC/PI staining based flow cytometry analysis (reference value: 1.09%); assay type: functional; parameters: scale not given: the % may be the effect or the level left
PC-12 [13] = assay: Inhibition of apoptosis in H2O2-induced rat PC12 cells assessed as late apoptotic cells at 5 uM incubated with compound for 24 hrs followed by H2O2 addition and measured after 24 hrs by Annexin V-FITC/PI staining based flow cytometry analysis (reference value: 2.64%); assay type: functional; parameters: scale not given: the % may be the effect or the level left
PC-12 [14] = assay: Inhibition of apoptosis in H2O2-induced rat PC12 cells assessed as late apoptotic cells at 2.5 uM incubated with compound for 24 hrs followed by H2O2 addition and measured after 24 hrs by Annexin V-FITC/PI staining based flow cytometry analysis (reference value: 2.64%); assay type: functional; parameters: scale not given: the % may be the effect or the level left
PC-12 [15] = assay: Inhibition of apoptosis in H2O2-induced rat PC12 cells assessed as necrotic cells at 2.5 uM incubated with compound for 24 hrs followed by H2O2 addition and measured after 24 hrs by Annexin V-FITC/PI staining based flow cytometry analysis (reference value: 4.05%); assay type: functional; parameters: scale not given: the % may be the effect or the level left
PC-12 [16] = assay: Neuroprotective activity against H2O2-induced cell injury in rat PC12 cells assessed as cell viability incubated for 24 hrs by MTT assay; assay type: functional, cell-based; settings: dose 0.37-30 µM
PC-12 [17] = assay: Inhibition of apoptosis in H2O2-induced rat PC12 cells assessed as early apoptotic cells at 5 uM incubated with compound for 24 hrs followed by H2O2 addition and measured after 24 hrs by Annexin V-FITC/PI staining based flow cytometry analysis (reference value: 1.09%); assay type: functional; parameters: scale not given: the % may be the effect or the level left
SH-SY5Y = assay: Cytotoxicity against human SH-SY5Y cells assessed as inhibition of cell viability at 100 uM incubated for 24 hrs by MTT assay; assay type: functional, cell-based
PC-12 [18] = assay: Neuroprotective activity in H2O2-induced rat PC12 cells assessed as reversal of mitochondrial membrane potential reduction by measuring red fluorescence at 2.5 uM incubated with compound for 24 hrs followed by H2O2 addition and measured after 24 hrs by JC-1 based fluorescence microscopic analysis (reference value: 21.62 a.u.); assay type: functional
PC-12 [19] = assay: Neuroprotective activity in H2O2-induced rat PC12 cells assessed as reversal of mitochondrial membrane potential reduction by measuring red fluorescence at 1.25 uM incubated with compound for 24 hrs followed by H2O2 addition and measured after 24 hrs by JC-1 based fluorescence microscopic analysis (reference value: 21.62 a.u.); assay type: functional
PC-12 [20] = assay: Neuroprotective activity in H2O2-induced rat PC12 cells assessed as reversal of mitochondrial membrane potential reduction by measuring green fluorescence at 2.5 uM incubated with compound for 24 hrs followed by H2O2 addition and measured after 24 hrs by JC-1 based fluorescence microscopic analysis (reference value: 4.90 a.u.); assay type: functional
PC-12 [21] = assay: Neuroprotective activity in H2O2-induced rat PC12 cells assessed as reversal of mitochondrial membrane potential reduction by measuring red fluorescence fold change at 5 uM incubated with compound for 24 hrs followed by H2O2 addition and measured after 24 hrs by JC-1 based fluorescence microscopic analysis (reference value: 1.00); assay type: functional
PC-12 [22] = assay: Neuroprotective activity in H2O2-induced rat PC12 cells assessed as reversal of mitochondrial membrane potential reduction by measuring red fluorescence fold change at […] incubated with compound for 24 hrs followed by H2O2 addition and measured after 24 hrs by JC-1 based fluorescence microscopic analysis (reference value: 1.00); assay type: functional
PC-12 [23] = assay: Neuroprotective activity in H2O2-induced rat PC12 cells assessed as reversal of mitochondrial membrane potential reduction by measuring green fluorescence at 5 uM incubated with compound for 24 hrs followed by H2O2 addition and measured after 24 hrs by JC-1 based fluorescence microscopic analysis (reference value: 4.90 a.u.); assay type: functional
[24] = Drug uptake in mitochondria of rat PC12 cells at 8 uM incubated for 8.5 hrs by HPLC analysis; assay type: ADME; settings: pc12, 8.5 h
PC-12 [25] = assay: Neuroprotective activity in H2O2-induced rat PC12 cells assessed as reversal of mitochondrial membrane potential reduction by measuring red fluorescence fold change at 2.5 uM incubated with compound for 24 hrs followed by H2O2 addition and measured after 24 hrs by JC-1 based fluorescence microscopic analysis (reference value: 1.00); assay type: functional
PC-12 [26] = assay: Neuroprotective activity in H2O2-induced rat PC12 cells assessed as reversal of mitochondrial membrane potential reduction by measuring green fluorescence at 1.5 uM incubated with compound for 24 hrs followed by H2O2 addition and measured after 24 hrs by JC-1 based fluorescence microscopic analysis (reference value: 4.90 a.u.); assay type: functional
PC-12 [27] = assay: Cytoprotective activity against H2O2-induced cell injury in rat PC12 cells assessed as cell viability at 10 uM incubated for 24 hrs by MTT assay; assay type: functional, cell-based
[28] = Drug uptake in rat PC12 cells at 8 uM incubated for 8.5 hrs by HPLC analysis; assay type: ADME, cell-based; settings: pc-12, 8.5 h
PC-12 [29] = assay: Neuroprotective activity in H2O2-induced rat PC12 cells assessed as reversal of mitochondrial membrane potential reduction by measuring green fluorescence fold change at 2.5 uM incubated with compound for 24 hrs followed by H2O2 addition and measured after 24 hrs by JC-1 based fluorescence microscopic analysis (reference value: 1.00); assay type: functional
PC-12 [30] = assay: Neuroprotective activity in H2O2-induced rat PC12 cells assessed as reversal of mitochondrial membrane potential reduction by measuring green fluorescence fold change at 5 uM incubated with compound for 24 hrs followed by H2O2 addition and measured after 24 hrs by JC-1 based fluorescence microscopic analysis (reference value: 1.00); assay type: functional
PC-12 [31] = assay: Induction of autophagy in H2O2-induced rat PC12 cells assessed as upregulation of LC3-II/I ratio by Western blot analysis; assay type: functional, cell-based; settings: dose 1.25-5 µM
[32] = Drug uptake in cytoplasm of rat PC12 cells at 8 uM incubated for 8.5 hrs by HPLC analysis; assay type: ADME, subcellular; settings: pc12, 8.5 h
PC-12 [33] = assay: Neuroprotective activity in H2O2-induced rat PC12 cells assessed as reversal of mitochondrial membrane potential reduction by measuring red fluorescence at 5 uM incubated with compound for 24 hrs followed by H2O2 addition and measured after 24 hrs by JC-1 based fluorescence microscopic analysis (reference value: 21.62 a.u.); assay type: functional
PC-12 [34] = assay: Induction of autophagy in H2O2-induced rat PC12 cells assessed as downregulation of P62 expression by Western blot analysis; assay type: functional, cell-based; settings: dose 1.25-5 µM
PC-12 [35] = assay: Cytoprotective activity against H2O2-induced cell injury in rat PC12 cells assessed as cell viability at 20 uM incubated for 24 hrs by MTT assay; assay type: functional, cell-based
PC-12 [36] = assay: Neuroprotective activity in H2O2-induced rat PC12 cells assessed as reversal of mitochondrial membrane potential reduction by measuring green fluorescence fold change at 1.5 uM incubated with compound for 24 hrs followed by H2O2 addition and measured after 24 hrs by JC-1 based fluorescence microscopic analysis (reference value: 1.00); assay type: functional

SMILES	Activity (PC-12 [1]) [%]	viability at 1.25 µM (PC-12 [2]) [%]	Activity (PC-12 [4]) [%]	Activity (PC-12 [5]) [%]	Activity (PC-12 [6])	viability at 5 µM (PC-12 [7]) [%]	viability at 2.5 µM (PC-12 [8]) [%]	Activity (PC-12 [9]) [%]	Activity (Danio rerio)	Activity (PC-12 [11])	Activity (PC-12 [12]) [%]	Activity (PC-12 [13]) [%]	Activity (PC-12 [14]) [%]	Activity (PC-12 [15]) [%]	Activity (PC-12 [17]) [%]	Activity (SH-SY5Y)	other results
C=CCc1ccc(OCCCNC(=O)[C@H](CCCNC(=O)OCc2ccccc2)NC(=O)[C@@H](NC(=O)[C@@H]2CCCN2C(=O)[C@@H](Cc2ccccc2)NC(=O)[C@H](CC(C)C)NC(=O)OC(C)(C)C)C(C)C)c(-c2ccc(O)c(CC=C)c2)c1	17.2	76.6	1.4	4.86	Active	86.8	83.9	1.58	Active	inactive	11.6	2.69	2.87	1.66	8.97		Activity (PC-12 [3]): Active; Activity (PC-12 [10]): Active; Activity (PC-12 [16]): Dose-dependent-effect
CC(C)C[C@H](NC(=O)OC(C)(C)C)C(=O)N[C@H](Cc1ccccc1)C(=O)N1CCC[C@H]1C(=O)N[C@H](C(=O)N[C@@H](CCCNC(=O)OCc1ccccc1)C(=O)O)C(C)C										Active						inactive	
C=CCc1ccc(O)c(-c2ccc(O)c(CC=C)c2)c1 [HONOKIOL]	16.6	76.9	1.57	4.95	Active	77.1	79.6	1.52	Active		15.6	4.84	3.27	1.43	16.5	Active	Activity (PC-12 [18]): 6.59 a.u.; Activity (PC-12 [19]): 2.16 a.u.; Activity (PC-12 [20]): 4.08 a.u.; fold change (FC) (PC-12 [21]): 0.63; fold change (FC) (PC-12 [22]): 0.09; Activity (PC-12 [23]): 3.97 a.u.; Drug uptake [24]: Active; fold change (FC) (PC-12 [25]): 0.32; Activity (PC-12 [26]): 6.32 a.u.; Activity (PC-12 [27]): Active; Drug uptake [28]: Active; fold change (FC) (PC-12 [29]): 1.02; fold change (FC) (PC-12 [30]): 1.26; Activity (PC-12 [31]): inactive; Drug uptake [32]: Active; Activity (PC-12 [33]): 13.31 a.u.; Activity (PC-12 [34]): inactive; Activity (PC-12 [35]): inactive; fold change (FC) (PC-12 [36]): 2.55
C=CCc1ccc(OCCCNC(=O)[C@H](CCCNC(=O)OCc2ccccc2)NC(=O)[C@@H](NC(=O)[C@@H]2CCCN2C(=O)[C@@H](Cc2ccccc2)NC(=O)[C@H](CC(C)C)NC(=O)OC(C)(C)C)C(C)C)c(-c2ccc(OC)c(CC=C)c2)c1										inactive							
C=CCc1ccc(OC)c(-c2ccc(OCCCNC(=O)[C@H](CCCNC(=O)OCc3ccccc3)NC(=O)[C@@H](NC(=O)[C@@H]3CCCN3C(=O)[C@@H](Cc3ccccc3)NC(=O)[C@H](CC(C)C)NC(=O)OC(C)(C)C)C(C)C)c(CC=C)c2)c1										inactive							
